# From patent US10829520B2, “Beta-hairpin peptidomimetics” (POLYPHOR AG, priority 2015, dated 2020)
# Where a SMILES comes first, the peptide text is derived from it. Bridges are numbered along the chain shown (N, C = ends). Roman numbers before positions name the chains, in order. [ ]: non-standard residue; d: D form. Ala(cPent) = N[C@@H](CC1CCCC1)C(=O)O; Hyp = O=C(O)[C@@H]1C[C@@H](O)CN1; Tle = CC(C)(C)[C@H](N)C(=O)O; dDab = NCC[C@@H](N)C(=O)O; hCys = N[C@@H](CCS)C(=O)O; Nle = CCCC[C@H](N)C(=O)O; Orn = NCCC[C@H](N)C(=O)O; Dab = NCC[C@H](N)C(=O)O; Sar = CNCC(=O)O
# Columns and labels:
# Format in all cases: cell-based
# [1] = tested on: human red blood cells (hRBC); test: Hemolysis of human red blood cells; settings: red cells of human, 1 h
# Procedure: (§1) Lyophilized peptides were weighed on a Microbalance (Mettler MT5) and dissolved in sterile water to a final concentration of 1 mg/mL. Stock solutions were kept at +4° C., light protected.
# The peptides were tested for their hemolytic activity against human red blood cells (hRBC). Fresh hRBC were washed three times with phosphate buffered saline (PBS) and centrifuged for 10 min at 2000×g. Compounds (100 μg/mL) were incubated with 20% hRBC (v/v) for 1 h at 37° C. and shaking at 300 rpm. The final erythrocyte concentration was approximately 0.9×10^9 cells/mL. A value of 0% and 100% cell lyses, respectively, was determined by incubation of hRBC in the presence of PBS containing 0.001% acetic acid and 2.5% Triton X-100 in H2O, respectively. The samples were centrifuged, the supernatants were 8-fold diluted in PBS buffer and the optical densities (OD) were measured at 540 nm. The 100% lyses value (OD540H2O) gave an OD540 of approximately 0.5-1.0.
# Percent hemolysis was calculated as follows: (OD540peptide/OD540H2O)×100%.
# [2] = tested on: Acinetobacter baumannii DSM 30008; settings: DSM 30008
# Procedure: as §1
# (§2) The in vitro antimicrobial activities of the peptides were determined in 96-well plates (Greiner, polystyrene) by the standard CLSI broth microdilution method (Clinical and Laboratory Standards Institute 2014. Performance standards for antimicrobial susceptibility testing, 24th informational supplement. Approved standard CLSI M100-S24; Clinical and Laboratory Standards Institute, Wayne, Pa.). Inocula of the microorganisms were diluted into Mueller-Hinton II (MH-cation adjusted) broth and compared with a 0.5 McFarland standard to give appr. 10^6 colony forming units (CFU)/mL. Aliquots (90 μL) of inoculate were added to 10 μL of MH-II broth+P-80 (Polysorbate 80, 0.002% final concentration, v/v) containing the peptide in serial two-fold dilutions. The following microorganisms were used to determine antibiotic activity of the peptides: Escherichia coli ATCC 25922, Klebsiella pneumoniae SSI #3010^a), Acinetobacter baumannii DSM 30008, Pseudomonas aeruginosa ATCC 27853 and the clinical isolates Escherichia coli 926415^b), Klebsiella pneumoniae 968733^b) and Acinetobacter baumannii 872842^b). Antimicrobial activities of the peptides were expressed as the minimal inhibitory concentration (MIC) in μg/mL at which no visible growth was observed after 18-20 hours of incubation at 35° C. ^a) Obtained from Statens Serum Institut (SSI), Copenhagen, Denmark^b) Obtained from International Health Management Associates, Inc. (IHMA Europe Sàrl), Epalinges, Switzerland
# [3] = tested on: Pseudomonas aeruginosa ATCC 27853; settings: ATCC 27853
# Procedure: as §1, §2
# [4] = tested on: Klebsiella pneumoniae SSI #3010; settings: SSI #3010
# Procedure: as §1, §2
# [5] = tested on: Escherichia coli ATCC 25922; settings: ATCC 25922
# Procedure: as §1, §2
Structure (SMILES),Hemolysis at 100 μg/mL ([1]; 100 μg/mL) [%],Acinetobacter baumannii DSM 30008 MIC [2] [µg/mL],Pseudomonas aeruginosa ATCC 27853 MIC [3] [µg/mL],Klebsiella pneumoniae SSI #3010 MIC [4] [µg/mL],Escherichia coli ATCC 25922 MIC [5] [µg/mL],Hemolysis at 100 μg/mL [1]; 100 [%]
CCCC[C@@H]1NC(=O)[C@@H]2CCCN2C(=O)[C@H]2CCCN2C(=O)[C@H](CO)NC(=O)[C@H](C)NC(=O)[C@H](C(C)(C)C)NC(=O)[C@H](CCN)NC(=O)[C@H](Cc2c[nH]c3ccccc23)NC(=O)[C@@H](N)CSSC[C@@H](C(=O)N[C@H](CCN)C(=O)N[C@H]2CCNC(=O)[C@H]([C@@H](C)O)NC(=O)[C@H](CCN)NC(=O)[C@H](CCN)NC(=O)[C@H](CC(C)C)NC(=O)[C@@H](CC(C)C)NC(=O)[C@H](CCN)NC2=O)NC(=O)[C@H](CCCN)NC(=O)[C@H](CCN)NC(=O)[C@H](Cc2ccc(O)cc2)NC(=O)[C@H](CO)NC1=O [Ex. 195] (H-CW[Dab][Tle]AS[dP]P[Nle]SY[Dab][Orn]C[dDab][Dab][Dab][dL]L[Dab][Dab]T; disulfide 1-14; lactam 16-C),<1,0.5,1,0.125,0.125,
CC(C)C[C@@H]1NC(=O)[C@@H](CC(C)C)NC(=O)[C@H](CCN)NC(=O)[C@@H](NC(=O)[C@H](CCN)NC(=O)[C@@H](NC(=O)[C@H](CCN)NC(=O)CNC(=O)[C@H](CCN)NC(=O)[C@H](Cc2ccc(O)cc2)NC(=O)[C@@H]2CSSC[C@H](NC(=O)[C@@H](NC(=O)[C@H](CCN)NC(=O)[C@@H](N)Cc3c[nH]c4ccccc34)C(C)C)C(=O)N[C@@H](CO)C(=O)N[C@H](C)C(=O)N3C[C@H](O)C[C@H]3C(=O)N[C@@H](CC(C)C)C(=O)N2)[C@@H](C)O)CCNC(=O)[C@H]([C@@H](C)O)NC(=O)[C@H](CCN)NC(=O)[C@H](CCN)NC1=O [Ex. 164] (H-W[Dab]VCS[dA][Hyp]LCY[Dab]G[Dab]T[Dab][Dab][Dab][dL]L[Dab][Dab]T; disulfide 4-9; lactam 16-C),<1,0.25,0.5,0.5,0.0625,
CC(C)C[C@@H]1NC(=O)[C@@H](CC(C)C)NC(=O)[C@H](CCN)NC(=O)[C@@H](NC(=O)[C@H](CCN)NC(=O)[C@@H](NC(=O)[C@H](CCN)NC(=O)CNC(=O)[C@@H]2CCSSC[C@H](NC(=O)[C@@H](N)Cc3c[nH]c4ccccc34)C(=O)N[C@@H](C(C)C)C(=O)N[C@@H](C)C(=O)N[C@@H](CO)C(=O)N3CCC[C@@H]3C(=O)N3CCC[C@H]3C(=O)N[C@@H](CC(C)C)C(=O)N[C@@H](CO)C(=O)N[C@@H](Cc3ccc(O)cc3)C(=O)N2)[C@@H](C)O)CCNC(=O)[C@H]([C@@H](C)O)NC(=O)[C@H](CCN)NC(=O)[C@H](CCN)NC1=O [Ex. 134] (H-WCVAS[dP]PLSY[hCys]G[Dab]T[Dab][Dab][Dab][dL]L[Dab][Dab]T; disulfide 2-11; lactam 16-C),<1,0.125,1,0.25,0.125,
CC(C)C[C@@H]1NC(=O)[C@@H](Cc2ccccc2)NC(=O)[C@H](CCN)NC(=O)[C@@H](NC(=O)[C@H](CCN)NC(=O)[C@H](CCCN)NC(=O)[C@@H]2CSSC[C@H](NC(=O)[C@H](Cc3c[nH]c4ccccc34)NC(=O)CN)C(=O)N[C@@H](C(C)(C)C)C(=O)N[C@@H](C)C(=O)N[C@@H](CO)C(=O)N3CCC[C@@H]3C(=O)N3CCC[C@H]3C(=O)N[C@@H](CC3CCCC3)C(=O)N[C@@H](CO)C(=O)N[C@@H](Cc3ccc(O)cc3)C(=O)N2)CCNC(=O)[C@H]([C@@H](C)O)NC(=O)[C@H](CCN)NC(=O)[C@H](CCN)NC1=O [Ex. 183] (H-GWC[Tle]AS[dP]P[Ala(cPent)]SYC[Orn][Dab][Dab][Dab][dF]L[Dab][Dab]T; disulfide 3-12; lactam 15-C),2,0.25,0.5,0.125,0.125,
CC(C)C[C@@H]1NC(=O)[C@H](CCCNC(=N)N)NC(=O)[C@@H](CCN)NC(=O)[C@H](C(C)C)NC(=O)[C@H](C)NC(=O)[C@H](Cc2ccc(O)cc2)NC(=O)[C@H](CCN)NC(=O)[C@H](Cc2c[nH]c3ccccc23)NC(=O)[C@H](CCN)NC(=O)[C@@H](CCN)NC(=O)[C@H](CCC(=O)N[C@@H](CCN)C(=O)N[C@H](C(=O)N[C@@H](CCN)C(=O)N[C@H]2CCNC(=O)[C@H]([C@@H](C)O)NC(=O)[C@H](CCN)NC(=O)[C@H](CCN)NC(=O)[C@H](CC(C)C)NC(=O)[C@@H](CC(C)C)NC(=O)[C@H](CCN)NC2=O)[C@@H](C)O)NC(=O)[C@H](CCN)NC(=O)[C@H](Cc2ccc(O)cc2)NC(=O)[C@H](CO)NC1=O [Ex. 97] (I: cyclo(AV[dDab]RLSY[Dab]E[dDab][Dab]W[Dab]Y) / II: [Dab]T[Dab][Dab][Dab][dL]L[Dab][Dab]T; amide I:9-II:N; lactam II:4-II:C),,2,0.5,0.5,0.5,1
CC(C)C[C@@H]1NC(=O)[C@@H](CC(C)C)NC(=O)[C@H](CCN)NC(=O)[C@@H](NC(=O)[C@H](CCN)NC(=O)[C@@H](NC(=O)[C@H](CCN)NC(=O)CN(C)C(=O)[C@@H]2CSSC[C@H](NC(=O)[C@@H](N)Cc3c[nH]c4ccccc34)C(=O)N[C@@H](C(C)C)C(=O)N[C@@H](C)C(=O)N[C@@H](CO)C(=O)N3CCC[C@@H]3C(=O)N3CCC[C@H]3C(=O)N[C@@H](CC(C)C)C(=O)N[C@@H](CO)C(=O)N[C@@H](Cc3ccc(O)cc3)C(=O)N2)[C@@H](C)O)CCNC(=O)[C@H](CCCNC(=N)N)NC(=O)[C@H](CCN)NC(=O)[C@H](CCN)NC1=O [Ex. 181] (H-WCVAS[dP]PLSYC[Sar][Dab]T[Dab][Dab][Dab][dL]L[Dab][Dab]R; disulfide 2-11; lactam 16-C),<1,0.125,0.5,0.125,0.0625,
CC(C)C[C@@H]1NC(=O)[C@@H](CC(C)C)NC(=O)[C@H](CCN)NC(=O)[C@@H](NC(=O)[C@H](CCN)NC(=O)[C@@H](NC(=O)[C@H](CCN)NC(=O)CN(C)C(=O)[C@@H]2CSSC[C@H](NC(=O)[C@@H](N)Cc3c[nH]c4ccccc34)C(=O)N[C@@H](C(C)C)C(=O)N[C@@H](C)C(=O)N[C@@H](CO)C(=O)N3CCC[C@@H]3C(=O)N3CCC[C@H]3C(=O)N[C@@H](CC(C)C)C(=O)N[C@@H](CO)C(=O)N[C@@H](Cc3ccc(O)cc3)C(=O)N2)[C@@H](C)O)CCNC(=O)[C@@H](CCCNC(=N)N)NC(=O)[C@H](CCN)NC(=O)[C@H](CCN)NC1=O [Ex. 182] (H-WCVAS[dP]PLSYC[Sar][Dab]T[Dab][Dab][Dab][dL]L[Dab][Dab][dR]; disulfide 2-11; lactam 16-C),1,0.75,4,0.5,0.5,
CCCC[C@@H]1NC(=O)[C@@H]2CCCN2C(=O)[C@H]2CCCN2C(=O)[C@H](CO)NC(=O)[C@H](C)NC(=O)[C@H](C(C)(C)C)NC(=O)[C@H](CCC(=O)N[C@@H](CCN)C(=O)N[C@H](C(=O)N[C@@H](CCN)C(=O)N[C@H]2CCNC(=O)[C@H]([C@@H](C)O)NC(=O)[C@H](CCN)NC(=O)[C@H](CCN)NC(=O)[C@H](CC(C)C)NC(=O)[C@@H](Cc3ccccc3)NC(=O)[C@H](CCN)NC2=O)[C@@H](C)O)NC(=O)[C@H](Cc2c[nH]c3ccccc23)NC(=O)[C@H](CCN)NC(=O)[C@@H](CCN)NC(=O)[C@H](CCCN)NC(=O)[C@H](CCN)NC(=O)[C@H](Cc2ccc(O)cc2)NC(=O)[C@H](CO)NC1=O [Ex. 11] (I: cyclo(WE[Tle]AS[dP]P[Nle]SY[Dab][Orn][dDab][Dab]) / II: [Dab]T[Dab][Dab][Dab][dF]L[Dab][Dab]T; amide I:2-II:N; lactam II:4-II:C),,1,0.5,1,2,1
